# Data as given in patent US5134150A, “Inhibition of the 5-lipoxygenase pathway” (priority 1989, dated 1992).
# “Also recorded” adds a separate entry of the source.
# Experiments:
# [1] = tested on: Experimental Allergic Encephalomyelitis Induced in Female Lewis Rats; assay: Experimental allergic encephalomyelitis, hindleg paralysis; type: in vivo, rat (female Lewis); settings: for Inhibition of EAE, result in words: rat, in vivo
# Protocol: EAE is induced in Female (Charles River) Lewis rats by a single intradermal injection of 0.1 ml of an encephalitogenic emulsion consisting of equial parts of a 50% w/v homogenate of guinea pig spinal cord and mid-brain in 0.5% aqueous phenol and Freund's complete adjuvant (4 mg/ml killed, dried M. butyricum) into a hindpaw (left) footpad. […] Any animal which becomes paralyzed during the course of the experiment is considered to have developed EAE whether or not the paralysis is permanent. Test compounds are administered daily beginning on the day of injection, for 19 days, exclusive of days 5, 6 12 and 13. Drug activity is determined by comparing the indicidence of EAE (paralysis) of the treated group with a control (vehicle) group. The level of significant difference between the treated groups and control groups is determined by a Chi-square test using a 2×2 contingency table. Body weight changes from day 0 are also statistically compared to the control group using a Student "t" test.
# [2] = tested on: Carrageenan-Induced Cellular Infiltration into the Rat Air Pouch; assay: Carrageenan-induced air pouch inflammation; type: in vivo, rat (male Lewis); settings: for Cell infiltration into carrageenan air pouch, result in words: rat, in vivo
# Source text: (§1) In the following Examples where mice were used, they were male Balb/c mice (20-28 g), and where rats were used, they were male Lewis rats (180-210 g). All mice and rats were obtained from Charles River Breeding Laboratories, Kingston, N.Y. Within a single experiment, mice and rats were sex and age matched.
# (§2) The compounds of Formula (I) were used either as the free base or in the appropriate salt form. Levamisole was used as the hydrochloride salt. The compounds were homogenized in 0.5% tragacanth. Compounds were administered by gavage at the indicated dose in a final volume of 10 ml/kg. Nordihydroguaiaretic acid (NDGA) was solubilized in dimethylacetamide and diluted with olive oil for subcutaneous administration.
# (§3) Rats were shaved on the dorsal flank, and then injected subcutaneously one day later with 20 ml of air to form a defined pouch, by the method of Sedgwick et al., J. Pathology, 141, 483-495 (1983). The air pouch was reinflated as necessary over the next 6 days. To assay anti-inflammatory activity, animals were treated orally with test compound or vehicle (10 ml/kg) one hour before injection of 2.0 ml of a 2.0% carrageenan suspension containing […] penicillin and 100 µg/ml streptomycin into the air pouch. In other experiments, 5 ml of 0.1% arachidonic acid in 0.2M bicarbonate buffer was injected two hours after drug treatment. Animals were sacrificed using CO2 three hours after instillation of irritant. The exudate was then aspirated from the pouch and neutrophil count and differential cell count were measured.
# [3] = tested on: Arachidonic Acid-Induced Inflammation of the Mouse Ear; assay: Arachidonic acid-induced mouse ear inflammation; type: in vivo, mouse (male Balb/c); settings: for Mouse ear edema, result in words: in vivo
# Source text: as §1, §2
# Arachidonic acid in acetone ([…]) was applied to the inner surface of the left ear. The thickness of both ears was then measured with a dial micrometer one hour after treatment, and the data were expressed as the change in thickness (10^-3 cm) between treated and untreated ears.
# Test compounds were given orally in 0.5% tragacanth at the times indicated in the text prior to the topical application of arachidonic acid.
# Parenteral administration of compound was accomplished by subcutaneous injection of solution as indicated.
# [4] = tested on: Infiltration of Polymorphonuclear Leukocytes into Sites of Carrageenan-Induced Inflammation; assay: Mouse carrageenan peritonitis (PMN infiltration); type: in vivo, mouse (male Balb/c); settings: for PMN infiltration, result in words: carrageenan peritonitis, mice
# [5] = tested on: Arachidonic Acid-Induced Cellular Infiltration into the Rat Air Pouch; assay: Arachidonic acid-induced air pouch inflammation; type: in vivo, rat (male Lewis); settings: for Cell infiltration into arachidonic acid air pouch, result in words: rat, in vivo
# Source text: as §1, §2, §3
# [6] = tested on: Arachidonic Acid-Induced Rat Paw Edema; assay: Arachidonic acid-induced rat paw swelling; type: in vivo, rat (male Lewis)
# Source text: as §1
# Auranofin, phenidone, indomethacin, naproxen, and ibuprofen were each used as the free base. The compounds of Formula (I) were used either as the free base or in the appropriate salt form. Levamisole was used as the hydrochloride salt. The compounds were homogenized in 0.5% tragacanth. Compounds were administered by gavage at the indicated dose in a final volume of 10 ml/kg. Nordihydroguaiaretic acid (NDGA) was solubilized in dimethylacetamide and diluted with olive oil for subcutaneous administration.
# After determining pretreatment paw volumes by plethysmography by the method of Webb and Griswold, J. Pharmacol. Methods, 12, 149-153 (1984), rats were given test compound or vehicle one hour prior to the subplantar injection of 0.1 ml of 1 mg/ml arachidonic acid. Paw volumes were then remeasured and compared to pretreatment values and the increase in paw volume was expressed as mean values ± S.D.
# [7] = 5 mg/kg, 2 hours post arachidonic acid
smiles,measurement,setting,value
COc1ccc2c(c1)c(CC(=O)O)c(C)n2C(=O)c1ccc(Cl)cc1 [Indomethacin],"Inhibition of EAE, result in words",[1],not indomethacin
same,Cellular Infiltrate MN,[2]; 5 mg/kg,4.0 ± 0.8 Total × 10^-6
same,Cellular Infiltrate PMN,[2]; 5 mg/kg,2.8 ± 0.7 Total × 10^-6
same,Exudate Volume,[2]; 5 mg/kg,2.0 ± 0.5 mL
same,"Cell infiltration into carrageenan air pouch, result in words",[2],reduction in the PMN count and the PMN:mononuclear cell ratio
same,% Change (ear thickness),"[3]; 10 mg/kg, p.o.",-5%
same,Increase in Ear Thickness at 1 Hour,"[3]; 10 mg/kg, p.o.",24.4 ± 0.8 × 10-3 cm
same,"Mouse ear edema, result in words",[3],did not exhibit detectable anti-inflammatory activity
same,% Change (PMN),"[4]; 10 mg/kg, p.o., Table 3",-12%
same,PMN (Mean ± S.D.),"[4]; 10 mg/kg, p.o., Table 3",8.20 ± 2.65 × 10^-5 /ml
same,"PMN infiltration, result in words",[4],did not impair inflammatory cell infiltration
same,Cellular Infiltrate MN,[5]; 5 mg/kg,7.0 ± 6.4 Total × 10^-6
same,Cellular Infiltrate PMN,[5]; 5 mg/kg,5.0 ± 3.8 Total × 10^-6
same,Exudate Volume,[5]; 5 mg/kg,2.5 ± 0.8 mL
same,"Cell infiltration into arachidonic acid air pouch, result in words",[5],did not reduce inflammation or cell infiltration; also recorded: no significant effect on cell infiltration
same,% Inhibition (paw volume),[6]; [7],0%
same,Change in Paw Volume,[6]; [7],0.29 ± 0.06 mL
Fc1ccc(-c2nc3n(c2-c2ccncc2)CCS3)cc1 [Compound 1],"Hindleg paralysis - cumulative incidence, day 14 to 18","[1]; 60 mg/kg/day, p.o.",0/11
same,"Inhibition of EAE, result in words",[1],efficacious
same,Cellular Infiltrate MN,[2]; 100 mg/kg,5.5 ± 3.8 Total × 10^-6
same,Cellular Infiltrate PMN,[2]; 100 mg/kg,2.6 ± 1.3 Total × 10^-6
same,Exudate Volume,[2]; 100 mg/kg,1.0 ± 0.9 mL
same,"Cell infiltration into carrageenan air pouch, result in words",[2],significant inhibition of polymorphonuclear leukocyte infiltration
same,Increase in Ear Thickness at 1 Hour,"[3]; 50 mg/kg, p.o.",10.0 ± 1.5 × 10-3 cm
same,"Mouse ear edema, result in words",[3],marked inhibition of the edematous response
same,"PMN infiltration, result in words",[4],reduced dramatically
same,Cellular Infiltrate MN,[5]; 100 mg/kg,1.5 ± 1.1 Total × 10^-6
same,Cellular Infiltrate PMN,[5]; 100 mg/kg,1.2 ± 0.7 Total × 10^-6
same,Exudate Volume,[5]; 100 mg/kg,2.6 ± 0.8 mL
same,"Cell infiltration into arachidonic acid air pouch, result in words",[5],significantly reduced PMN and mononuclear cell infiltration
same,Change in Paw Volume,"[6]; 100 mg/kg, 2 hours post arachidonic acid",0.06 ± 0.05 mL
same,"Rat paw inflammatory response, result in words","[6]; rat, in vivo",inhibited significantly
